From patent US20080318974A1, “Compounds Useful for Inhibiting Chk1” (Icos Corporation, priority 2004, published 2008)

Test system: HT29 and Colo205 (human colon carcinoma) and H460 and Calu-6 (nonsmall cell carcinoma) xenograft tumors
Experiment: Xenograft animal tumor models
Type: in vivo
Conditions: gemcitabine 160 mg/kg i.p., Balb/c (nu/nu) mice
Text: To test the ability of the Chk1 inhibitors of the invention to enhance the killing of tumors by DNA damaging agents in mice, xenograft tumor models using colon tumor cell lines are established. 5-fluorouracil (5-FU) or gemcitabine can be used as DNA damaging agents. HT29 and Colo205 (human colon carcinoma) and H460 and Calu-6 (nonsmall cell carcinoma) cells can be used to propagate xenograft tumors in 6-8 week old female […] Balb/c (nu/nu) mice. Mice are maintained in a laminar airflow cabinet under pathogen-free conditions and fed sterile food and water ad libitum. Cell lines are grown to subconfluence in RPMI 1640 media supplemented with 10% FBS, 100 U/mL penicillin, 100 μg/mL streptomycin, and 1.5 mM L-glutamine in a 5% CO2 humidified environment. Single cell suspensions are prepared in CMF-PBS, and cell concentration adjusted to 1×10^8 cells/mL. Mice are inoculated subcutaneously (s.c.) on the right flank or right leg with a total of 1×10^7 cells (100 μL). Mice are randomized (5-15 mice/group) into four treatment groups and used when tumors reach a volume of […] (usually 7-11 days post-inoculation). Tumors are measured with […] calipers and tumor volumes are estimated using the empirically derived formula: tumor volume (cm^3)=tumor length (cm) x tumor width (cm)×tumor depth (cm)/3.3. […] Tumor size is monitored every other day for the duration of the experiment.

Nc1ccn([C@@H]2O[C@H](CO)[C@@H](O)C2(F)F)c(=O)n1 [gemcitabine, 2′,2′ difluoro-2′-deoxycytidine]
tumor growth: delay in tumor growth
